Legend:
class-III β-tubulin = assay: ELISA protein level; format: cell-based, human; conditions: 48 h
Method: Dissection of the compound’s proapoptotic activity was proceeded through gene expression analysis for key genes, controlling apoptosis pathway, as well as protein level determination. Following 8b treatment for 48 h, alterations within MDA-MB-231/breast cancer cell expression of Bcl-2, Bax, caspase-3, -8, and -9 genes, as well as cytochrome c and class-III β-tubulin proteins levels were determined using real-time polymerase chain reaction (RT-PCR) or ELISA technique, respectively. Typically, Bcl-2, Bax, caspases, and cytochrome c proteins contributes within the regulation of apoptotic signaling. Acting as apoptotic activator (Bax) or inhibitor (Bcl-2), the Bcl-2 family proteins play their significant role in apoptosis. The caspases family are cysteine proteases being classified as either executioners; caspase-3, -6, or -7 or initiators; caspase-8 and -9 [36]. Regrading caspase-8, its activation is proceeded through extrinsic death-receptor dependent apoptotic pathway, while, caspase-9 activation is within the event of intrinsic mitochondrial cytochrome c leakage. Additionally, participation of activated caspase-3 is to be essential for caspase-8 activation. […]

[1] = In-vitro drug release, dialysis method; format: physicochemical; conditions: over 48 h, PBS pH 7.4, 37 °C, dialysis bag
Method: The in-vitro drug-release behavior of SLNs was determined through the dialysis method. The release of drug from SLNs was done using phosphate buffer saline (pH 7.4) as dissolution medium. An accurate amount of SLNs (equivalent to 5 mg drug) was taken and placed within the dialysis bag (MWCO: 12 kDa). The dialysis bag was closed from both ends and placed within 75 mL Phosphate Buffer Saline (pH 7.4) as dissolution medium. The analysis was conducted while maintaining the dissolution medium at 37 ± 1 °C and being stirred via magnetic stirrer at 100 rpm. Dissolution medium samples (2 mL) were withdrawn at pre-determined time intervals (0.5, 1, 2, 4, 8, 12, 24 and 48 h). Equal volumes of fresh dissolution medium were added to replace the withdrawn volumes for keeping sink condition. The experiment was done in triplicate and the amount of drug release was measured following the same procedure as in the entrapment efficiency section.

Caspase-8 gene = assay: RT-PCR apoptotic gene expression; format: cell-based, human; conditions: 13 μM, 48 h, MDA-MB-231, vs negative control
Method: (§1) Dissection of the compound’s proapoptotic activity was proceeded through gene expression analysis for key genes, controlling apoptosis pathway, as well as protein level determination. Following 8b treatment for 48 h, alterations within MDA-MB-231/breast cancer cell expression of Bcl-2, Bax, caspase-3, -8, and -9 genes, as well as cytochrome c and class-III β-tubulin proteins levels were determined using real-time polymerase chain reaction (RT-PCR) or ELISA technique, respectively. Typically, Bcl-2, Bax, caspases, and cytochrome c proteins contributes within the regulation of apoptotic signaling. Acting as apoptotic activator (Bax) or inhibitor (Bcl-2), the Bcl-2 family proteins play their significant role in apoptosis. The caspases family are cysteine proteases being classified as either executioners; caspase-3, -6, or -7 or initiators; caspase-8 and -9 [36]. Regrading caspase-8, its activation is proceeded through extrinsic death-receptor dependent apoptotic pathway, while, caspase-9 activation is within the event of intrinsic mitochondrial cytochrome c leakage. Additionally, participation of activated caspase-3 is to be essential for […] activation. Class-III β-tubulin are pure prognostic biomarker within cancer patients being associated with aggressive phenotypic/drug-resistant cancers and part of complicated pro-survival molecular pathway, being triggered via poor nutrient supply and hypoxia.
(§2) Quantitative Real-time PCR was operated on Rotor-Gene Q® PCR system as a reader (Cat.#: 204774; Qiagen^TM, Milan, Italy) via GenElute® RNA extraction/SIGMA PCR kit (Cat.#: REI10; Qiagen^TM, Milan, Italy)^86. Cells were treated with IC50 of 8b for 48 h and total RNA was extracted from the non-treated and treated cells. RNA purity was assessed via Nanodrop® 2000/2000c UV-Vis spectrophotometer (Thermo-Scientific^TM, Bilbao, Spain). Synthesis of cDNA was proceeded using QuantiNova® Reverse Transcription Kit (Cat.#: RTN30; Qiagen^TM, Milan, Italy) and the subsequent PCR tests were conducted via single tubes. Specific forward/reverse primer pairs were selected for investigated (Casp-3, -8, -9, BAX, and Bcl2). Obtained results were expressed within Cycle threshold (Ct) values, while relative quantitation of each measured gene was assessed based on ΔΔCt calculations as represented in Table 5 [79].

Caspase-9 gene = assay: RT-PCR apoptotic gene expression; format: cell-based, human; conditions: 13 μM, 48 h, MDA-MB-231, vs negative control
Method: as §1, §2

BAX gene = assay: RT-PCR apoptotic gene expression; format: cell-based, human; conditions: 13 μM, 48 h, MDA-MB-231, vs negative control
Method: as §1, §2

Caspase-3 gene = assay: RT-PCR apoptotic gene expression; format: cell-based, human; conditions: 13 μM, 48 h, MDA-MB-231, vs negative control
Method: as §1, §2

[2] = tested on: MDCK/kidney non-cancerous cells; assay: MTT-cell proliferation assay on non-cancerous cell line; format: cell-based; conditions: 48 h drug exposure, mean ± SEM
Excerpt: The potential anti-cancer activity of all fourteen final synthesized compounds was investigated through MTT cytotoxic assay against two different human solid cancerous cell lines; A549/lung and MDA-MB-231/breast adenocarcinoma. The adopted cell-proliferation assay assessed % cell viability in relation to the reducing activity of cellular NADPH-dependent cellular oxidoreductases on tetrazolium dye, MTT [2,5-diphenyl-3-(4,5-dimethylthiazol-2-yl)tetrazolium bromide salt], for furnishing an easily quantified insoluble chromogenic formazan. For each drug concentration, 0.1, 1, 10, and 100 μM, the % cell-viability was estimated relative to negative control following a complete 48 h of drug treatment. Both 5-fluorouracil (5-FU) and doxorubicin (DOX) were set as positive index comparators. Moreover, the safety profile of the synthesized compounds was further investigated by examining their in-vitro cytotoxicity on non-cancerous cell line; MDCK/kidney cells.
Evaluating the cytotoxicity of tested compounds on two cancer cell lines (A549/lung and MDA-MB-231/breast adenocarcinoma) and non-cancerous (MDCK/kidney cells) was performed while adopting the formerly described method with small alterations. Cancer cell lines were propagated within Dulbecco’s Modified Eagle Medium-High Glucose (Cat.#: P0103; DMEM_High Glucose with Na.Pyruvate and stable Glutamine, Biowest^TM, Nuaillé, France), while MDA-MB-231 cells were propagated within RPMI-1640 L-Glutamine medium (Cat.#:12-604F; Lonza-Verviers SPRL^TM, Verviers, Belgium). The culturing media were supplemented via 1% antibiotic-antimycotic 100X (Cat.#: L0010; Biowest^TM, Nuaillé, France) and 10% fetal bovine serum (FBS) (Cat.#: EU-000-H; Seralab^TM, West Sussex, UK). Cells were seeded as triplicates within 96-well plate, at 1 × 10^4 cells per well density, after being counted and viability checked using the trypan blue staining solution (Cat.# ab233465; Abcam^TM, Cambridge, MA, USA). Seeded cells were permitted to adhere for 24 h under 5% CO2 and at 37 °C incubating conditions. The assigned compounds were dissolved in 500 µL DMSO affording the stock solution (100 mM) being ready for more diluting within the whole medium to obtain the compound’s final concentrations; 0.1, 1, 10, 100 µM for cell treatments. […] Following 24 h compound-cell treatment, the medium was substituted by fresh one and cells were permitted to develop for 48 h. At four hours prior the end of incubation, 10 μL MTT Sigma-Aldrich^TM (5 mg/mL in PBS 1X without magnesium and calcium; Cat.# 17-516F, Lonza-Verviers^TM, Basel, Switzerland) were added to all wells. Following the complete 48 h incubation, 100 μL DMSO was all added to all wells where they were subsequently centrifuged at 4000 rpm for 5 min allowing the formazan crystals of formazan to precipitate. Color was established and intensities were recorded at 490 nm using Synergy-Neo2® Hybrid MultiMode Plate Reader (BioTek^TM, Winooski, VT, USA), while subtracting the multi-well plates background absorbance at 690 nm. Percentage cell viability was estimated using the subsequent formula: % cell-viability = (average absorbance of treated wells/average absorbance of controls) × 100.

total released amount of drug [1]: 21.48 ± 1.17%
SMILES: CCCc1ccc(-c2nn(-c3ccccc3)cc2C=NNC(=O)c2cc3ccccc3[nH]2)cc1 [Compound 8b, N′-((1-phenyl-3-(4-propylphenyl)-1H-pyrazol-4-yl)methylene)-1H-indole-2-carbohydrazide]
class-III β-tubulin level (class-III β-tubulin; 13 μM, MDA-MB-231, control 0.73 ng/mL): 0.23 ng/mL
inhibition at 13 µM (class-III β-tubulin; Homo sapiens, MDA-MB-231, vs control): 68.4%
Caspase-8 gene expression (Caspase-8 gene): 1.53 folds
Caspase-9 gene expression (Caspase-9 gene): 7.65 folds
BAX gene expression (BAX gene): 3.61 folds
Caspase-3 gene expression (Caspase-3 gene): 4.28 folds
IC50 [2]: 92.75 ± 0.43 µM
IC50 ([2]; Canis lupus familiaris, MDCK, 48 h): 92 µM

Source: publication PMC7912796, “Design, Synthesis, Anticancer Activity, and Solid Lipid Nanoparticle Formulation of Indole- and Benzimidazole-Based Compounds as Pro-Apoptotic Agents Targeting Bcl-2 Protein” (Pharmaceuticals, 2021)
